This is an account of results in US20230010871A1, “COMPLEXES COMPRISING A CA[…] AND AN ACTIVE INGREDIENT AND PROCESSES FOR THEIR PREPARATION” (FOLIUM LABS INC., priority 2019, published 2023).

This data set can be described thus: Oral pharmacokinetic profile of CBD and THC complexes in rats (plasma concentration by GC-MS/MS). Conditions: per os single gavage, fasted male rats.

As to `CCCCCc1cc(O)c2c(c1)OC(C)(C)[C@@H]1CCC(C)=C[C@@H]21` [pure THC, tetrahydrocannabinol], the “THC average circulating levels in plasma” value (20 mg/kg THC-based dose) is “mostly below the limit of quantitation”.

As for `C=C(C)[C@@H]1CCC(C)=C[C@H]1c1c(O)cc(CCCCC)cc1O` [CBD, cannabidiol], for the setting “20 mg/kg CBD-based dose, plasma”, the “CBD Cmax (average)” value is 0.0127 µg/mL.
